Results from patent US20110086891A1, “Solid Forms of 2-(2,4-Difluorophenyl)-6-(1-(2,6-Difluorophenyl)Ureido)Nicotinamide)” (Vertex Pharmaceuticals Incorporated, priority 2009, published 2011).
Converted amounts (≈) assume the structure as drawn. “Also recorded” adds a separate entry of the source.

How the values were obtained:
Assay type in all cases: physicochemical
[1] = Solubility analysis (in water); conditions: 25 °C, thermodynamic from solid
Description: This was measured by suspending enough Compound I in 0.25 mL of solvent (water) to give a maximum final concentration of ≧10 mg/ml of the parent free form of the compound. The suspension was equilibrated at 25° C. for 24 hrs followed by a pH check and filtration through a glass fibre C96 well plate. The filtrate was then diluted down by a factor of 101. Quantitation was by HPLC (Table XI) with reference to a standard, diluted and undiluted tests were injected. The solubility was calculated by integration of the peak area found at the same retention time as the peak maximum in the standard injection. If there is sufficient solid in the filter plate the XRPD is normally checked for phase changes, hydrate formation, amorphization, crystallization, etc.

[2] = Stability studies at 40° C./75% RH (physical and chemical stability, XRPD)
From the text: In some embodiments, less than 25% of the solid form of Compound I decomposes, in some embodiments, less than about 20%, less than about 15%, less than about 10%, less than about 5%, less than about 3%, less than about 1%, less than about 0.5% of the form of Compound I decomposes under the conditions specified. In some embodiments, no detectable amount of the solid form of Compound I decomposes. […] In some embodiments, less than 25% of the solid form of Compound I changes into one or more different physical forms when subjected to specified conditions. In some embodiments, less than about 20%, less than about 15%, less than about 10%, less than about 5%, less than about 3%, less than about 1%, less than about 0.5% of the solid form of Compound I changes into one or more different physical forms of Compound I when subjected to specified conditions. In some embodiments, no detectable amount of the solid form of Compound I changes into one or more physically different solid forms of Compound I.

[3] = Relative stability studies: slurrying 1:1 mixtures of forms in 3:1 water:ethanol at various temperatures; conditions: slurry in 3:1 water:ethanol
Description: 1:1 mixtures of Form C and form G of Compound I were slurried in 3:1 water:ethanol at a range of temperatures to determine the relative stability at different temperatures. 5 mg of Form C was mixed with 5 mg of Form G in a glass vial. 1.0 ml of 3:1 water:ethanol was added and the resulting slurry was stirred at 5° C. for 10 days. The resulting solid was isolated by filtration and analysed by XRPD (see FIG. 17).
(§1) The above procedure was repeated at 25, 50 and 80° C.
1:1 mixtures of Form C and Form F were slurried in 3:1 water:ethanol at a range of temperatures to determine the relative stability at different temperatures. […] Ethanol was used in addition to water in order to increase the amount of Compound I in solution and so increase the rate of conversion between forms. Ethanol was chosen as no ethanol solvate of Compound I was known. 10 mg of Form C was mixed with 10 mg of Form F in a glass vial. 2.0 ml of 3:1 water:ethanol was added and the resulting slurry was stirred at 5° C. for 24 hours. Solid was isolated by filtration and analysed by XRPD.
as §1
1:1 mixtures of Form F and Form G were slurried in 3:1 water:ethanol at a range of temperatures to determine the relative stability at different temperatures. 10 mg of Form F was mixed with 10 mg of Form G in a glass vial. 2.0 ml of 3:1 water:ethanol was added and the resulting slurry was stirred at 5° C. for 24 hours. The resulting solid was isolated by filtration and analysed by XRPD. The above procedure was repeated at 25, 50 and 70° C. 70° C. was used instead of 80° C. in an attempt to reduce degradation.

[4] = Gravimetric vapour sorption (GVS) studies
Description: All samples were run on a Hiden IGASorp moisture sorption analyzer running CFRSorp software. Sample sizes were typically 10 mg. A moisture absorption-desorption isotherm was performed as outlined below in Table X (2 scans giving 1 complete cycle). All samples were loaded/unloaded at typical room humidity and temperature (40% RH, 25° C.). All samples were analysed by XRPD post GVS analysis. The standard isotherm was performed at 25° C. at 10% RH intervals over a 0-90% RH range.

[5] = Interconversion studies (slurries in EtOAc, MeOH and water); conditions: ambient conditions
Description: Interconversion studies between the different forms of Compound I described herein were carried out using the general procedure outlined here:
Interconversion studies were conducted in EtOAc, MeOH and water with materials giving XRPD patterns A, P, C and F. Attempts were made to monitor the presence of the different forms of Compound I in the methanol and ethyl acetate interconversion slurries using Raman analysis and XRPD. The presence of the solvents was dominant in the Raman spectra of the slurries. […] After slurrying for 10 days, pattern A was obtained from MeOH. Pattern C was obtained from all samples slurried in EtOAc or water. […] Interconversion data can be found in Tables XVII.

[6] = Apparent (non-equilibrium) solubilities of Form C in various solvents; conditions: thermodynamic from solid
Description: Table XIII contains representative apparent (non-equilibrium) solubilities of Form C in various exemplary solvents.
Fifty (50.0) mg of Compound I, Form C was weighed into a small, screw-top vial. The relevant solvent was added in portions until a clear solution was obtained. In several cases, solubilization was aided by heating with a heat gun and then allowed to cool down to rt. The data provided in Table XIII are representative and some variability may occur between lots of a particular sample, e.g., about 10%.

NC(=O)c1ccc(N(C(N)=O)c2c(F)cccc2F)nc1-c1ccc(F)cc1F [Form C, 2-(2,4-difluorophenyl)-6-(1-(2,6-difluorophenyl)ureido)nicotinamide]
solubility at 24 h [1]: ≥ 0.02 mg/mL | results of stability studies as seen by XRPD (before and after spectra) [2]: before and after spectra are similar | time remaining in substantially the same physical form ([2]; 40° C./75% RH): at least two | relative stability between forms [3]: more stable than Form G at a temperature of 50 °C or above; also recorded: more stable than Form F at 50 and 80 °C | total weight gain from 0 to 90% RH ([4]; 0 to 90% RH, T=25° C.): 0.15% | weight gain up to 60% RH ([4]; up to 60% RH, 25° C.): negligible | relative stability of unsolvated forms [5]: most stable unsolvated form at ambient conditions | solubility ([6]; organic solvent or mixture, apparent, 1,4-dioxane): 100 mg/mL (≈ 247 mM) | solubility ([6]; organic solvent or mixture, apparent, 1-Butanol): 50 mg/mL (≈ 124 mM) | solubility ([6]; organic solvent or mixture, apparent, 2-Butanone): 50 mg/mL (≈ 124 mM) | solubility ([6]; organic solvent or mixture, apparent, 2-Propanol): 50 mg/mL (≈ 124 mM) | solubility ([6]; organic solvent or mixture, apparent, 2-Propyl Acetate): < 20 mg/mL | solubility ([6]; organic solvent or mixture, apparent, Acetone): 50 mg/mL (≈ 124 mM) | solubility ([6]; organic solvent or mixture, apparent, Acetonitrile): 33 mg/mL (≈ 81.6 mM) | solubility ([6]; organic solvent or mixture, apparent, Butyl acetate): 33 mg/mL (≈ 81.6 mM) | solubility ([6]; organic solvent or mixture, apparent, DMSO): 100 mg/mL (≈ 247 mM) | solubility ([6]; organic solvent or mixture, apparent, Dimethylformamide): 100 mg/mL (≈ 247 mM) | solubility ([6]; organic solvent or mixture, apparent, Ethanol): 50 mg/mL (≈ 124 mM) | solubility ([6]; organic solvent or mixture, apparent, Ethyl Acetate): 20 mg/mL (≈ 49.5 mM) | solubility ([6]; organic solvent or mixture, apparent, Heptane): < 20 mg/mL | solubility ([6]; organic solvent or mixture, apparent, Hexafluorophenol): 100 mg/mL (≈ 247 mM) | solubility ([6]; organic solvent or mixture, apparent, Methanol): 100 mg/mL (≈ 247 mM) | solubility ([6]; organic solvent or mixture, apparent, Methyl isobutyl ketone): 50 mg/mL (≈ 124 mM) | solubility ([6]; organic solvent or mixture, apparent, Methylene Chloride): < 20 mg/mL | solubility ([6]; organic solvent or mixture, apparent, N,N-dimethylacetamide): 100 mg/mL (≈ 247 mM) | solubility ([6]; organic solvent or mixture, apparent, Tert-butyl methyl ether): < 20 mg/mL | solubility ([6]; organic solvent or mixture, apparent, Tetrahydrofuran): 20 mg/mL (≈ 49.5 mM) | solubility ([6]; organic solvent or mixture, apparent, Toluene): 20 mg/mL (≈ 49.5 mM) | solubility ([6]; organic solvent or mixture, apparent, cyclohexane): < 20 mg/mL | solubility ([6]; apparent, Water): < 20 mg/mL
